# Where “and” joins values, the source holds several entries; their conditions need not be identical. Equal entries are not always repeated. Where two headings read alike, the source gives them in different places. Marks after values point to notes of the source that are not given here.
# Legend:
# dung-breeding flies = conditions: cattle, cited from earlier work
# immature stages of flies = conditions: dairy calves, outdoor hutches, dose per body weight; cited from earlier work
# [1] = in vivo; cited from earlier work
# [2] = system: Musca domestica (Hilmer Strain) larvae; assay: House fly bioassay: adult fly emergence from larvae exposed to feces of cyromazine-treated horses; assay type: in vivo; conditions: for Adult Fly Emergence from Larvae Hatched, Rep 1-4: 600 mg/day oral, after 3 weeks
# Method: (§1) Cyromazine (2-cycloproplyamino-4,6-diamino-s-triazine) was obtained as a purified chemical composition at greater than 98% cyromazine (technical cyromazine). 600 mg of cyromazine was orally administered to each horse daily by top-dressing horse feed, for a continuous daily administration during fly season. In this example, horses residing in North Carolina, U.S. were treated during the local fly season, lasting approximately March through October of the calendar year.
# (§2) In one study, cyromazine administration was stopped, and 5 manure samples were obtained from the same horse at 24, 48, 72, 96 and 120 hours post-dosing to monitor the duration of cyromazine at an insecticidal amount in the feces. In another study, single manure samples were collected from each individual horse (n=4) <24 hours after dosing with cyromazine, i.e., before another daily dose was given. Untreated control horse manure was collected from a nearby horse ranch. Samples were shipped and kept in the refrigerator until the house fly bioassay was set-up.
# The replicates containing hatched larvae were then returned to the environmental chamber in the presence of the test feces samples to determine the insecticidal effect of the cyromazine in the feces. Adult house fly emergence from larvae was determined after 3 weeks.
# (§3) The percent larval hatch, adult fly emergence and corrected percent effect were calculated and recorded. The percentage of eggs hatching is calculated as the mean number of eggs hatched after 2 days per test divided by 50 (the total eggs input), and multiplied by 100. The percentage of adult fly emergence from larvae hatched (% larvae emerging as flies) is calculated as the mean number of adult flies emerging after 3 weeks per test divided by the mean number of larvae hatching on test day 2, and multiplied by 100. The percentage of larvae not developing is calculated as the mean number of larvae not developing per test divided by the mean number of larvae hatching on test day 2, and multiplied by 100. Thus, the data in Table 2 refers back to the data in Table 1, and the data in Table 4 refers back to the data in Table 3.
# house flies = conditions: added to the feed of mink; cited from earlier work
# house fly = conditions: feed-through to fattening porkers, traditional pens with straw bedding; cited from earlier work
# [3] = Tolerability of daily oral cyromazine in horses; assay type: in vivo, horse; conditions: 600 mg daily oral by top-dressing feed
# Method: as §1, §2
# [4] = system: Musca domestica (Hilmer Strain) eggs; assay: House fly bioassay: larval hatch from 50 eggs; assay type: in vivo; conditions: for Larval Hatch/50 Eggs, Rep 1-4: scored after 2 days
# Method: as §1, §2
# Approximately fifty (50) Musca domestica (Hilmer Strain) eggs <24 hours old were counted and placed on filter paper discs in each of four replicates (rep) per cyromazine treatment group or control. Each replicate was covered with a paper towel and placed in the environmental chamber at 80° F. (27° C.), 80% relative humidity and a 14:10 (light:dark) photoperiod. The eggs were scored for larval hatch after two days and a layer of wood shavings added as a moisture barrier and a dry substrate for pupation.
# as §3
# [5] = 120 hour sample (4 reps), first study
# [6] = feces of horse Barney, <24 hours post-dosing
# [7] = feces of horse Fancy, <24 hours post-dosing
# [8] = feces of horse Phalete, <24 hours post-dosing
# [9] = feces of horse Precious, <24 hours post-dosing
# [10] = horse feces 24 hours post-dosing
# [11] = horse feces 48 hours post-dosing
# [12] = horse feces 72 hours post-dosing
# [13] = horse feces 96 hours post-dosing
# [14] = horse feces 120 hours post-dosing
# [15] = horse Barney, <24 hours post-dosing group
# [16] = horse Fancy, <24 hours post-dosing group
# [17] = horse Phalete, <24 hours post-dosing group
# [18] = horse Precious, <24 hours post-dosing group
# [19] = same horse, 600 mg/day oral, 24 hours post-dosing group
# [20] = same horse, 600 mg/day oral, 48 hours post-dosing group
# [21] = same horse, 600 mg/day oral, 72 hours post-dosing group
# [22] = same horse, 600 mg/day oral, 96 hours post-dosing group
# [23] = same horse, 600 mg/day oral, 120 hours post-dosing group
compound,measurement,setting,value
COC(C)(C)CCC[C@H](C)C/C=C/C(C)=C/C(=O)OC(C)C (racemic) [methoprene],inhibition of development in manure,dung-breeding flies; drinking water,Complete inhibition of development in manure
same,inhibition of development in manure,dung-breeding flies; mineral blocks,Complete inhibition of development in manure
"Nc1nc(N)nc(NC2CC2)n1 [cyromazine, 2-cyclopropylamino-4,6-diamino-s-triazine]",doses preventing development of immature stages of flies in straw bedding,immature stages of flies,0.5 to 1.0 mg/kg
same,share of all cyromazine excreted found in urine,[1],95%
same,flies emerged,[2]; [5],1
same,"flies emerged, percent",[2]; [5],0.2%
same,insecticidal amount in the feces,"[2]; feces obtained at 24, 48, 72, 96 and 120 hours post-dosing",An insecticidal amount of cyromazine was present in the feces
same,"Adult Fly Emergence from Larvae Hatched, Rep 1-4",[2]; [6],0
same,# Larvae not Developing,[2]; [6],133
same,% Larvae Emerging as Flies,[2]; [6],0%
same,% Larvae not Developing,[2]; [6],100.0%
same,"Adult Fly Emergence from Larvae Hatched, Σ",[2]; [6],0
same,"Adult Fly Emergence from Larvae Hatched, Rep 1-4",[2]; [7],0
same,# Larvae not Developing,[2]; [7],147
same,% Larvae Emerging as Flies,[2]; [7],0%
same,% Larvae not Developing,[2]; [7],100.0%
same,"Adult Fly Emergence from Larvae Hatched, Σ",[2]; [7],0
same,"Adult Fly Emergence from Larvae Hatched, Rep 1-4",[2]; [8],0
same,# Larvae not Developing,[2]; [8],167
same,% Larvae Emerging as Flies,[2]; [8],0%
same,% Larvae not Developing,[2]; [8],100.0%
same,"Adult Fly Emergence from Larvae Hatched, Σ",[2]; [8],0
same,"Adult Fly Emergence from Larvae Hatched, Rep 1-4",[2]; [9],0
same,# Larvae not Developing,[2]; [9],179
same,% Larvae Emerging as Flies,[2]; [9],0%
same,% Larvae not Developing,[2]; [9],100.0%
same,"Adult Fly Emergence from Larvae Hatched, Σ",[2]; [9],0
same,adult fly emergence from hatched larvae,"[2]; first study, same horse sampled at 5 time points",completely inhibited adult fly emergence
same,# Larvae not Developing,[2]; [10],165
same,% Larvae Emerging as Flies,[2]; [10],0%
same,% Larvae not Developing,[2]; [10],100.0%
same,"Adult Fly Emergence from Larvae Hatched, Σ",[2]; [10],0
same,"Adult Fly Emergence from Larvae Hatched, Rep 1-4",[2]; [10],0
same,# Larvae not Developing,[2]; [11],115
same,% Larvae Emerging as Flies,[2]; [11],0%
same,% Larvae not Developing,[2]; [11],100.0%
same,"Adult Fly Emergence from Larvae Hatched, Σ",[2]; [11],0
same,"Adult Fly Emergence from Larvae Hatched, Rep 1-4",[2]; [11],0
same,# Larvae not Developing,[2]; [12],101
same,% Larvae Emerging as Flies,[2]; [12],0%
same,% Larvae not Developing,[2]; [12],100.0%
same,"Adult Fly Emergence from Larvae Hatched, Σ",[2]; [12],0
same,"Adult Fly Emergence from Larvae Hatched, Rep 1-4",[2]; [12],0
same,# Larvae not Developing,[2]; [13],150
same,% Larvae Emerging as Flies,[2]; [13],0%
same,% Larvae not Developing,[2]; [13],100.0%
same,"Adult Fly Emergence from Larvae Hatched, Σ",[2]; [13],0
same,"Adult Fly Emergence from Larvae Hatched, Rep 1-4",[2]; [13],0
same,# Larvae not Developing,[2]; [14],121
same,% Larvae Emerging as Flies,[2]; [14],0.8%
same,% Larvae not Developing,[2]; [14],99.8%
same,"Adult Fly Emergence from Larvae Hatched, Σ",[2]; [14],1
same,insecticidal activity of manure samples,"[2]; horses orally administered cyromazine, feces without urine",high degree of insecticidal activity
same,inhibition of house fly development,"[2]; second study, all 4 horses, <24 hours post-dosing",100%
same,prevention of breeding of house flies,house flies,ineffective
same,adult fly development,house fly,some adult flies did develop
same,"tolerability, side effects",[3],"well tolerated at this dosage, and no side effects were seen"
same,"Larval Hatch/50 Eggs, Rep 1-4","[4]; horse Barney, 600 mg/day oral, <24 hours post-dosing group",25 and 33 and 43 and 32
same,% Eggs Hatching,[4]; [15],66.5%
same,"Larval Hatch/50 Eggs, Mean",[4]; [15],33.25
same,"Larval Hatch/50 Eggs, Σ",[4]; [15],133
same,"Larval Hatch/50 Eggs, Rep 1-4","[4]; horse Fancy, 600 mg/day oral, <24 hours post-dosing group",47 and 33 and 32 and 35
same,% Eggs Hatching,[4]; [16],73.5%
same,"Larval Hatch/50 Eggs, Mean",[4]; [16],36.75
same,"Larval Hatch/50 Eggs, Σ",[4]; [16],147
same,% Eggs Hatching,[4]; [17],83.5%
same,"Larval Hatch/50 Eggs, Mean",[4]; [17],41.75
same,"Larval Hatch/50 Eggs, Σ","[4]; horse Phalete, <24 hours post-dosing group, sum decreased by 7 (footnote)",167*
same,"Larval Hatch/50 Eggs, Rep 1-4","[4]; horse Precious, 600 mg/day oral, <24 hours post-dosing group",49 and 37 and 44
same,% Eggs Hatching,[4]; [18],89.5%
same,"Larval Hatch/50 Eggs, Mean",[4]; [18],44.75
same,"Larval Hatch/50 Eggs, Σ",[4]; [18],179
same,% Eggs Hatching,[4]; [19],82.5%
same,"Larval Hatch/50 Eggs, Mean",[4]; [19],41.25
same,"Larval Hatch/50 Eggs, Σ",[4]; [19],165
same,"Larval Hatch/50 Eggs, Rep 1-4",[4]; [19],40 and 35 and 42 and 48
same,% Eggs Hatching,[4]; [20],57.5%
same,"Larval Hatch/50 Eggs, Mean",[4]; [20],28.75
same,"Larval Hatch/50 Eggs, Σ",[4]; [20],115
same,"Larval Hatch/50 Eggs, Rep 1-4",[4]; [20],31 and 21 and 30 and 33
same,% Eggs Hatching,[4]; [21],50.5%
same,"Larval Hatch/50 Eggs, Mean",[4]; [21],25.25
same,"Larval Hatch/50 Eggs, Σ",[4]; [21],101
same,"Larval Hatch/50 Eggs, Rep 1-4",[4]; [21],27 and 35 and 18 and 21
same,% Eggs Hatching,[4]; [22],75.0%
same,"Larval Hatch/50 Eggs, Mean",[4]; [22],37.50
same,"Larval Hatch/50 Eggs, Σ",[4]; [22],150
same,"Larval Hatch/50 Eggs, Rep 1-4",[4]; [22],40 and 38 and 34
same,% Eggs Hatching,[4]; [23],61.0%
same,"Larval Hatch/50 Eggs, Mean",[4]; [23],30.50
same,"Larval Hatch/50 Eggs, Σ",[4]; [23],122
same,"Larval Hatch/50 Eggs, Rep 1-4",[4]; [23],38 and 25 and 31 and 28

# Source: US6864256B2, “Methods for the control of insect pests” (Tria Specialty Products, LLC, priority 2002, dated 2005)
